{
  "source": "ChEMBL document CHEMBL1125830",
  "about": "“Phosphonate-containing inhibitors of tyrosine-specific protein kinases” (J Med Chem, 1991)",
  "key": {"[1]": {"target": "Epidermal growth factor receptor (Homo sapiens, UniProt P00533)", "sequence (P00533 whole entry)": "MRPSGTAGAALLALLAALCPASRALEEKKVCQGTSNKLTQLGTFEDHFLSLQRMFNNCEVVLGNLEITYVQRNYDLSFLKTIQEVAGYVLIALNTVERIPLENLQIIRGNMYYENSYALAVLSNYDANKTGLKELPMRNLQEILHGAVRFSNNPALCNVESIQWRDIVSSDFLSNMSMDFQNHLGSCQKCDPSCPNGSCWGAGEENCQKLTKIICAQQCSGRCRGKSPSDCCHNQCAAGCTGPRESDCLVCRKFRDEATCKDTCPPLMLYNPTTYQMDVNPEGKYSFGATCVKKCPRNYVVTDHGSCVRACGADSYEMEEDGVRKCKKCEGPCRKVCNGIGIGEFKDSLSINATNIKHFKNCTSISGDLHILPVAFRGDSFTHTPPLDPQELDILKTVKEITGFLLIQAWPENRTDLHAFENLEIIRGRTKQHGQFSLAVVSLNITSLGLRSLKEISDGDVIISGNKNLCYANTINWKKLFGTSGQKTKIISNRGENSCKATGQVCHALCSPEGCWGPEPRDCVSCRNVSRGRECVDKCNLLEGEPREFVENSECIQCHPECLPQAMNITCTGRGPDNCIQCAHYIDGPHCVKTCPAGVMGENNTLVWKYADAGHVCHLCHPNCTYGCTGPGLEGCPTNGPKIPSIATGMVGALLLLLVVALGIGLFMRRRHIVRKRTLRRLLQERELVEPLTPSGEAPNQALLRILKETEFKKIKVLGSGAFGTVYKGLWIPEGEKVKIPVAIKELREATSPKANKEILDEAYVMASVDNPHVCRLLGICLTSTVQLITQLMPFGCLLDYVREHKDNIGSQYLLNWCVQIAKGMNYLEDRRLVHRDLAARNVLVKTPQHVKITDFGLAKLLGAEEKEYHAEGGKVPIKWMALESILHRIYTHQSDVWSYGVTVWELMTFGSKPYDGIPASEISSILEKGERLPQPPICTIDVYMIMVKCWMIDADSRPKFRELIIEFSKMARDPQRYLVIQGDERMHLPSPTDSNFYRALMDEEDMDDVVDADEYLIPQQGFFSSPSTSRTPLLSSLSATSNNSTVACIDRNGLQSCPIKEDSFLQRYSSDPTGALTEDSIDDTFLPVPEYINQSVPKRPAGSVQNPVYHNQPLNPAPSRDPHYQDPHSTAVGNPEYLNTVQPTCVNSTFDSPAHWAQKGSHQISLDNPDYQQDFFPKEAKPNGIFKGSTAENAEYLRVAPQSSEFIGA", "experiment": "Inhibition of Epidermal growth factor receptor autophosphorylation in A431 cell membranes"}, "Insulin receptor": {"target": "Insulin receptor (Homo sapiens, UniProt P06213)", "sequence (P06213 28-758 limits assumed)": "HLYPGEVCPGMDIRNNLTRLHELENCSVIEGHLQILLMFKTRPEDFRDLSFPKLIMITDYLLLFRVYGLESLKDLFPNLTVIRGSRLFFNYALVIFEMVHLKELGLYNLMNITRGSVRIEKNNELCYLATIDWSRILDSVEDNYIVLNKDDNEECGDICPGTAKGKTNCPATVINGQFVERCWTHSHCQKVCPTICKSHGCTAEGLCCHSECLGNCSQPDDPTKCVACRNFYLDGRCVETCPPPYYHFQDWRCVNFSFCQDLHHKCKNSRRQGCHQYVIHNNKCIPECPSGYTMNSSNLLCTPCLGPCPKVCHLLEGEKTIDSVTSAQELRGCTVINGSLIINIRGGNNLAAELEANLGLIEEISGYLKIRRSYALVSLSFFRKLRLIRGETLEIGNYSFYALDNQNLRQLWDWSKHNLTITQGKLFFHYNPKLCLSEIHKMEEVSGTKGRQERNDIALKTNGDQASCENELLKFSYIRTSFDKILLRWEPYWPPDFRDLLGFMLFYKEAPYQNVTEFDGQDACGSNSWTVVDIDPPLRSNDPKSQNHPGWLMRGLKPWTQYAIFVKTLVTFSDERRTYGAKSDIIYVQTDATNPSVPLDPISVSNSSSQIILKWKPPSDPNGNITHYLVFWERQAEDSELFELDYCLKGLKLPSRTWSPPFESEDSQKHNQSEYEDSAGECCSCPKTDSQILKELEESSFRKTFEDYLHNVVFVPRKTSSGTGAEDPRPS", "sequence (P06213 763-1382 limits assumed)": "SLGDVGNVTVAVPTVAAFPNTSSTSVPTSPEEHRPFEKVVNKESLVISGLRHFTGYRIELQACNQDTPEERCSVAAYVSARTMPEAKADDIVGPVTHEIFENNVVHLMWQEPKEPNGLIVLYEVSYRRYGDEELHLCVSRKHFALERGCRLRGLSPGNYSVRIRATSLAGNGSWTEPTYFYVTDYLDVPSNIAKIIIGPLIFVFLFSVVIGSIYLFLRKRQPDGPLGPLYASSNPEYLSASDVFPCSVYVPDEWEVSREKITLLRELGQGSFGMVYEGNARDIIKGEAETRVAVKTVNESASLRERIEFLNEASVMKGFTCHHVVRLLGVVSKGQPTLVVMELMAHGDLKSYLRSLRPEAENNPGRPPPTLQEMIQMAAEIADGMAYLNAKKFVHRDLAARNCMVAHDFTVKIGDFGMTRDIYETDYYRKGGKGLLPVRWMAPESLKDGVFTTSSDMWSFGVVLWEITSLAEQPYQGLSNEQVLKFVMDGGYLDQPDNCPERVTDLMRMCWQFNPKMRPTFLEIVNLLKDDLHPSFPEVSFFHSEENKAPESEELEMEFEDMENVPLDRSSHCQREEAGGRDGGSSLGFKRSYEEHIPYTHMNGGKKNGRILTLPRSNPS", "experiment": "Inhibition of insulin receptor autophosphorylation"}},
  "data": [
    {"molecule": "O=P(O)(O)C(O)c1ccc2ccccc2c1", "note": "(configuration not stated)", "values": [
      {"measurement": "IC50", "setting": "[1]", "value": 250, "unit": "µM"},
      {"measurement": "IC50", "setting": "Insulin receptor", "value": 200, "unit": "µM"}
    ]}
  ]
}
